Experimental data: patent US20230346771A1, “INHIBITORS OF ENPP1 AND MODULATION OF BONE GROWTH” (Petragen, Inc., priority 2022, published 2023)

System: fenestration defects on buccal aspect of mandibular first molar in mice
Assay: Fenestration defect model with microCT of mandibles
Assay type: in vivo
Conditions: high dose (10 uM, 1 uL on collagen sponge in defect); 28 days; compared to ALPL, DMSO and low dose
Description: Fenestration defects were created on buccal aspect of mandibular first molar, distal root, in 6-7 week old mice. Collagen sponge with 1 uL of either alkaline phosphatase (ALPL) (100 ng/uL), DMSO (1 uL undiluted), high dose ENPP1 inhibitor (10 uM), low dose ENPP1 inhibitor (1 uM) was applied in the defect (n=3 or 4 for each group). Mice were euthanized 28 days later, and their mandibles were microCT scanned (unoperated side, defect side). A region of interest was defined as follows: • Right and left sides registered to each other to standardize position; • 480 microns mesial to and 3600 microns distal to first molar mesial height of contour; and
Unoperated side with defect side were registered, the enamel was removed from analysis, and change in volume (defect side—control side) was calculated from for dentin/cementum and alveolar bone for each treatment: ALPL, DMSO, low dose ENPP1 inhibitor, and high dose ENPP1 inhibitor. Regenerated bone area was much larger than defect size. To make the defect, muscle attachment was severed, and the region was curetted. Because the collagen sponge was placed in the defect and not fully enclosed (muscle was repositioned and sutured over sponge), there could be some leakage of DMSO/ALP/ENPP1 inhibitor, further stimulating bone growth.

With COc1ccc2c(-c3ccc(CNS(N)(=O)=O)cc3)ccnc2c1 [ENPP1 inhibitor, N-[[4-(7-methoxy-4-quinolinyl)phenyl]methyl]-sulfamide] the “bone densities on the fenestration side (density heat maps)” value was “higher”.
